Experimental data as given in the NIST ThermoML archive (doi:10.1016/j.jct.2007.07.005).
Numbers after ± are expanded uncertainties.

Assay: xn = mol fraction of the nth substance listed
Conditions: Fluid (supercritical or subcritical phases), vibrating tube

CCCCCO [pentan-1-ol] + O=C=O
mass density (312.96 K, 512 kPa, x2 = 0): 799.65 ± 0.43 kg/m3 | mass density (312.96 K, 1022 kPa, x2 = 0): 800.04 ± 0.43 kg/m3 | mass density (312.96 K, 1998 kPa, x2 = 0): 800.77 ± 0.44 kg/m3 | mass density (312.96 K, 3005 kPa, x2 = 0): 801.53 ± 0.44 kg/m3 | mass density (312.96 K, 4003 kPa, x2 = 0): 802.28 ± 0.44 kg/m3 | mass density (312.96 K, 5002 kPa, x2 = 0): 803.02 ± 0.44 kg/m3 | mass density (312.96 K, 6018 kPa, x2 = 0): 803.76 ± 0.44 kg/m3 | mass density (312.96 K, 6994 kPa, x2 = 0): 804.49 ± 0.44 kg/m3 | mass density (312.96 K, 8008 kPa, x2 = 0): 805.21 ± 0.44 kg/m3 | mass density (312.96 K, 9005 kPa, x2 = 0): 805.93 ± 0.44 kg/m3 | mass density (312.96 K, 10008 kPa, x2 = 0): 806.66 ± 0.44 kg/m3 | mass density (312.96 K, 11008 kPa, x2 = 0): 807.37 ± 0.44 kg/m3 | mass density (312.96 K, 12000 kPa, x2 = 0): 808.07 ± 0.44 kg/m3 | mass density (312.96 K, 13024 kPa, x2 = 0): 808.78 ± 0.44 kg/m3 | mass density (312.96 K, 13987 kPa, x2 = 0): 809.45 ± 0.44 kg/m3 | mass density (312.96 K, 15014 kPa, x2 = 0): 810.14 ± 0.45 kg/m3 | mass density (312.96 K, 15991 kPa, x2 = 0): 810.8 ± 0.45 kg/m3 | mass density (312.96 K, 17019 kPa, x2 = 0): 811.48 ± 0.45 kg/m3 | mass density (312.96 K, 17991 kPa, x2 = 0): 812.12 ± 0.45 kg/m3 | mass density (312.96 K, 19007 kPa, x2 = 0): 812.79 ± 0.45 kg/m3 | mass density (312.96 K, 19992 kPa, x2 = 0): 813.44 ± 0.45 kg/m3 | mass density (312.96 K, 21031 kPa, x2 = 0): 814.1 ± 0.45 kg/m3 | mass density (312.96 K, 22041 kPa, x2 = 0): 814.76 ± 0.45 kg/m3 | mass density (312.96 K, 23014 kPa, x2 = 0): 815.41 ± 0.45 kg/m3 | mass density (312.96 K, 24003 kPa, x2 = 0): 816.04 ± 0.45 kg/m3 | mass density (312.96 K, 25037 kPa, x2 = 0): 816.73 ± 0.45 kg/m3 | mass density (313.09 K, 6030 kPa, x2 = 0.3624): 824 ± 0.44 kg/m3 | mass density (313.09 K, 6997 kPa, x2 = 0.3624): 825.21 ± 0.44 kg/m3 | mass density (313.09 K, 8012 kPa, x2 = 0.3624): 826.4 ± 0.44 kg/m3 | mass density (313.09 K, 9018 kPa, x2 = 0.3624): 827.51 ± 0.44 kg/m3 | mass density (313.09 K, 10006 kPa, x2 = 0.3624): 828.5 ± 0.44 kg/m3 | mass density (313.09 K, 11027 kPa, x2 = 0.3624): 829.51 ± 0.44 kg/m3 | mass density (313.09 K, 12043 kPa, x2 = 0.3624): 830.52 ± 0.44 kg/m3 | mass density (313.09 K, 13029 kPa, x2 = 0.3624): 831.45 ± 0.45 kg/m3 | mass density (313.09 K, 13978 kPa, x2 = 0.3624): 832.37 ± 0.45 kg/m3 | mass density (313.09 K, 15011 kPa, x2 = 0.3624): 833.36 ± 0.45 kg/m3 | mass density (313.09 K, 16002 kPa, x2 = 0.3624): 834.27 ± 0.45 kg/m3 | mass density (313.09 K, 17008 kPa, x2 = 0.3624): 835.17 ± 0.45 kg/m3 | mass density (313.09 K, 17989 kPa, x2 = 0.3624): 836.08 ± 0.45 kg/m3 | mass density (313.09 K, 19002 kPa, x2 = 0.3624): 837 ± 0.45 kg/m3 | mass density (313.09 K, 20008 kPa, x2 = 0.3624): 837.88 ± 0.45 kg/m3 | mass density (313.09 K, 21025 kPa, x2 = 0.3624): 838.76 ± 0.45 kg/m3 | mass density (313.09 K, 21983 kPa, x2 = 0.3624): 839.58 ± 0.45 kg/m3 | mass density (313.09 K, 23039 kPa, x2 = 0.3624): 840.51 ± 0.45 kg/m3 | mass density (313.09 K, 24001 kPa, x2 = 0.3624): 841.34 ± 0.45 kg/m3 | mass density (313.1 K, 7022 kPa, x2 = 0.4651): 831.11 ± 0.44 kg/m3 | mass density (313.1 K, 8019 kPa, x2 = 0.4651): 832.63 ± 0.44 kg/m3 | mass density (313.1 K, 9041 kPa, x2 = 0.4651): 834.14 ± 0.44 kg/m3 | mass density (313.1 K, 10006 kPa, x2 = 0.8067): 827.85 ± 0.51 kg/m3 | mass density (313.1 K, 10013 kPa, x2 = 0.4651): 835.54 ± 0.44 kg/m3 | mass density (313.1 K, 10035 kPa, x2 = 0.9757): 716.11 ± 0.96 kg/m3 | mass density (313.1 K, 11006 kPa, x2 = 0.8067): 834.45 ± 0.49 kg/m3 | mass density (313.1 K, 11016 kPa, x2 = 0.4651): 836.96 ± 0.45 kg/m3 | mass density (313.1 K, 11020 kPa, x2 = 0.9757): 742.56 ± 0.96 kg/m3 | mass density (313.1 K, 11992 kPa, x2 = 0.9757): 762.5 ± 0.78 kg/m3 | mass density (313.1 K, 12018 kPa, x2 = 0.4651): 838.32 ± 0.45 kg/m3 | mass density (313.1 K, 12019 kPa, x2 = 0.8067): 840.12 ± 0.48 kg/m3 | mass density (313.1 K, 13002 kPa, x2 = 0.8067): 845.06 ± 0.48 kg/m3 | mass density (313.1 K, 13005 kPa, x2 = 0.4651): 839.67 ± 0.45 kg/m3 | mass density (313.1 K, 13014 kPa, x2 = 0.9757): 779.62 ± 0.7 kg/m3 | mass density (313.1 K, 13996 kPa, x2 = 0.8067): 849.67 ± 0.47 kg/m3 | mass density (313.1 K, 14022 kPa, x2 = 0.9757): 793.9 ± 0.65 kg/m3 | mass density (313.1 K, 14035 kPa, x2 = 0.4651): 841.03 ± 0.45 kg/m3 | mass density (313.1 K, 15002 kPa, x2 = 0.9757): 806.06 ± 0.62 kg/m3 | mass density (313.1 K, 15010 kPa, x2 = 0.4651): 842.33 ± 0.45 kg/m3 | mass density (313.1 K, 15017 kPa, x2 = 0.8067): 854.05 ± 0.47 kg/m3 | mass density (313.1 K, 16001 kPa, x2 = 0.9757): 817.16 ± 0.6 kg/m3 | mass density (313.1 K, 16018 kPa, x2 = 0.4651): 843.63 ± 0.45 kg/m3 | mass density (313.1 K, 16028 kPa, x2 = 0.8067): 858.11 ± 0.47 kg/m3 | mass density (313.1 K, 17009 kPa, x2 = 0.8067): 861.86 ± 0.47 kg/m3 | mass density (313.1 K, 17011 kPa, x2 = 0.4651): 844.89 ± 0.45 kg/m3 | mass density (313.1 K, 17026 kPa, x2 = 0.9757): 827.46 ± 0.58 kg/m3 | mass density (313.1 K, 17998 kPa, x2 = 0.9757): 836.37 ± 0.56 kg/m3 | mass density (313.1 K, 18010 kPa, x2 = 0.4651): 846.15 ± 0.45 kg/m3 | mass density (313.1 K, 18017 kPa, x2 = 0.8067): 865.48 ± 0.47 kg/m3 | mass density (313.1 K, 18996 kPa, x2 = 0.4651): 847.39 ± 0.45 kg/m3 | mass density (313.1 K, 19027 kPa, x2 = 0.8067): 868.98 ± 0.47 kg/m3 | mass density (313.1 K, 19034 kPa, x2 = 0.9757): 845.17 ± 0.55 kg/m3 | mass density (313.1 K, 19996 kPa, x2 = 0.8067): 872.2 ± 0.47 kg/m3 | mass density (313.1 K, 20005 kPa, x2 = 0.9757): 852.85 ± 0.54 kg/m3 | mass density (313.1 K, 20038 kPa, x2 = 0.4651): 848.66 ± 0.45 kg/m3 | mass density (313.1 K, 20988 kPa, x2 = 0.4651): 849.83 ± 0.45 kg/m3 | mass density (313.1 K, 20988 kPa, x2 = 0.9757): 860.09 ± 0.54 kg/m3 | mass density (313.1 K, 21011 kPa, x2 = 0.8067): 875.4 ± 0.47 kg/m3 | mass density (313.1 K, 21994 kPa, x2 = 0.9757): 867.1 ± 0.53 kg/m3 | mass density (313.1 K, 22004 kPa, x2 = 0.8067): 878.43 ± 0.47 kg/m3 | mass density (313.1 K, 22029 kPa, x2 = 0.4651): 851.07 ± 0.45 kg/m3 | mass density (313.1 K, 22839 kPa, x2 = 0.9757): 872.7 ± 0.53 kg/m3 | mass density (313.1 K, 22988 kPa, x2 = 0.4651): 852.24 ± 0.45 kg/m3 | mass density (313.1 K, 22990 kPa, x2 = 0.8067): 881.33 ± 0.47 kg/m3 | mass density (313.11 K, 3017 kPa, x2 = 0.0816): 805.83 ± 0.44 kg/m3 | mass density (313.11 K, 4040 kPa, x2 = 0.0816): 806.66 ± 0.44 kg/m3 | mass density (313.11 K, 5020 kPa, x2 = 0.0816): 807.44 ± 0.44 kg/m3 | mass density (313.11 K, 6033 kPa, x2 = 0.0816): 808.27 ± 0.44 kg/m3 | mass density (313.11 K, 6980 kPa, x2 = 0.0816): 809.01 ± 0.44 kg/m3 | mass density (313.11 K, 8003 kPa, x2 = 0.0816): 809.81 ± 0.44 kg/m3 | mass density (313.11 K, 9050 kPa, x2 = 0.0816): 810.62 ± 0.44 kg/m3 | mass density (313.11 K, 10006 kPa, x2 = 0.0816): 811.35 ± 0.44 kg/m3 | mass density (313.11 K, 10023 kPa, x2 = 0.9216): 783.1 ± 0.77 kg/m3 | mass density (313.11 K, 11007 kPa, x2 = 0.9216): 796.3 ± 0.59 kg/m3 | mass density (313.11 K, 11029 kPa, x2 = 0.0816): 812.13 ± 0.44 kg/m3 | mass density (313.11 K, 12014 kPa, x2 = 0.9216): 807.61 ± 0.56 kg/m3 | mass density (313.11 K, 12040 kPa, x2 = 0.0816): 812.89 ± 0.44 kg/m3 | mass density (313.11 K, 13034 kPa, x2 = 0.0816): 813.62 ± 0.44 kg/m3 | mass density (313.11 K, 13034 kPa, x2 = 0.9216): 817.54 ± 0.54 kg/m3 | mass density (313.11 K, 14013 kPa, x2 = 0.9216): 826.1 ± 0.53 kg/m3 | mass density (313.11 K, 14032 kPa, x2 = 0.0816): 814.36 ± 0.44 kg/m3 | mass density (313.11 K, 15008 kPa, x2 = 0.0816): 815.08 ± 0.45 kg/m3 | mass density (313.11 K, 15032 kPa, x2 = 0.9216): 834.15 ± 0.52 kg/m3 | mass density (313.11 K, 16011 kPa, x2 = 0.9216): 841.25 ± 0.51 kg/m3 | mass density (313.11 K, 16019 kPa, x2 = 0.0816): 815.8 ± 0.45 kg/m3 | mass density (313.11 K, 17000 kPa, x2 = 0.9216): 847.91 ± 0.51 kg/m3 | mass density (313.11 K, 17024 kPa, x2 = 0.0816): 816.51 ± 0.45 kg/m3 | mass density (313.11 K, 18011 kPa, x2 = 0.9216): 854.26 ± 0.5 kg/m3 | mass density (313.11 K, 18058 kPa, x2 = 0.0816): 817.22 ± 0.45 kg/m3 | mass density (313.11 K, 18990 kPa, x2 = 0.0816): 817.88 ± 0.45 kg/m3 | mass density (313.11 K, 19003 kPa, x2 = 0.9216): 860.12 ± 0.5 kg/m3 | mass density (313.11 K, 20009 kPa, x2 = 0.9216): 865.74 ± 0.5 kg/m3 | mass density (313.11 K, 20043 kPa, x2 = 0.0816): 818.6 ± 0.45 kg/m3 | mass density (313.11 K, 20983 kPa, x2 = 0.9216): 870.88 ± 0.49 kg/m3 | mass density (313.11 K, 21042 kPa, x2 = 0.0816): 819.28 ± 0.45 kg/m3 | mass density (313.11 K, 22024 kPa, x2 = 0.0816): 819.97 ± 0.45 kg/m3 | mass density (313.11 K, 23035 kPa, x2 = 0.0816): 820.66 ± 0.45 kg/m3
